Our source for the LC retention time values is the RepoRT retention time repository (doi:10.1021/acs.analchem.2c02893).

Holding throughout (details): stereoisomer not certain
A short description of data set [1]: RP, Thermo Scientific Acclaim RSLC 120 C18, 100 × 2.1 mm, 2.2 µm, 30 °C, 0.2 mL/min, estimated dead time 1.1 min; A: water + 0.1% formic acid, pH 2.6; B: methanol + 0.1% formic acid, pH 2.6; gradient (min/%B) 0/10 4/50 17/95 25/95 25.1/10 30/10.
Data set [2] is described as follows: RP, Waters ACQUITY UPLC BEH C18, 100 × 2.1 mm, 1.7 µm, 30 °C, 0.35 mL/min, estimated dead time 0.63 min; A: water + 0.01% formic acid + 5 mM ammonium formate, pH 3.71; B: acetonitrile + 0.01% formic acid, pH 3.71; gradient (min/%B) 0/10 3/10 22/100 30/100 30.1/10 40/10.
A short description of data set [3]: RP, Waters ACQUITY UPLC BEH C18, 100 × 2.1 mm, 1.7 µm, 35 °C, 0.35 mL/min, estimated dead time 0.63 min; A: water + 0.01% formic acid + 5 mM ammonium formate, pH 3.71; B: acetonitrile + 0.01% formic acid, pH 3.71; gradient (min/%B) 0/5 0.5/5 16/95 16.1/99 19/99 19.1/5 21/5.
A short description of data set [4]: RP, Thermo Scientific Acclaim RSLC 120 C18, 100 × 2.1 mm, 2.2 µm, 30 °C, 0.2 mL/min, estimated dead time 1.1 min; A: 90% water + 10% methanol + 0.01% formic acid + 5 mM ammonium formate, pH 3.61; B: methanol + 0.01% formic acid + 5 mM ammonium formate, pH 3.61; gradient (min/%B) 0/1 1/1 2/39 13/99.9 15/99.9 15.1/1 20.1/1.

The structures appear in SMILES notation.

Turning to `Cn1cnc2c1c(=O)[nH]c(=O)n2C` [Theobromine], the LC retention time is 3.37 min in data set [1], 1.23 min in data set [2], 1.65 min in data set [3] and 3.28 min in data set [4].
On to `Cn1c(=O)c2[nH]cnc2n(C)c1=O` [Theophylline], for which the LC retention time in data set [1] was 4.14 min; in data set [2] it was 1.66 min; in data set [3] it was 2.31 min; in data set [4], 3.93 min.
On to `CN(C)CC1CCCCC1(O)c1cccc(O)c1` (configuration not stated) [Tramadol-O-Desmethyl], for which the LC retention time in data set [1] was 3.86 min; in data set [2], 3.56 min; in data set [3] it was 3.48 min; in data set [4] it was 4.06 min.
`COc1cccc(C2(O)CCCCC2CN(C)C)c1` (configuration not stated) [Tramadol]: the LC retention time in data set [1] was 4.86 min; in data set [2], 6.56 min; in data set [3] it was 4.79 min; in data set [4] it was 4.88 min.
With `COc1cc(Cc2cnc(N)nc2N)cc(OC)c1OC` [Trimethoprim], the LC retention time in data set [1] was 3.86 min; in data set [2], 4.48 min; in data set [3], 3.78 min; in data set [4], 4.06 min.
For `CCC1OC(=O)CC(O)C(C)C(OC2OC(C)C(OC3CC(C)(O)C(O)C(C)O3)C(N(C)C)C2O)C(CC=O)CC(C)C(=O)C=CC(C)=CC1COC1OC(C)C(O)C(OC)C1OC` (configuration not stated) [Tylosin] the same measures were 7.75 min, 10.1 min, 7.42 min and 7.88 min.
On to `C=CC(N)CCC(=O)O` (configuration not stated) [Vigabatrin], for which the LC retention time was 1.34 min in data set [1], 0.81 min in data set [2], 0.83 min in data set [3] and 1.38 min in data set [4].
With `N#CC1CCCN1C(=O)CNC12CC3CC(CC(O)(C3)C1)C2` (configuration not stated) [Vildagliptin], the LC retention time was 2.81 min in data set [1], 1.89 min in data set [2], 2.68 min in data set [3] and 3.26 min in data set [4].
